Read-outs that look alike come from different tables or passages of the source.
What was measured:
[1] = for 400 nm: OD at 400 nm of the chemical; for OD400: Table 1
bovine coagulated blood = test: Decoloring screening: heme eluted from bovine coagulated blood (OD420-OD700); conditions: decolorization; for 700 nm calibrated 420 nm Average: OD420 calibrated by OD700; for integrated value 500-700 nm Average: integrated absorbance 500-700 nm
Description: A high-throughput screening system for evaluating the decoloring ability of various compounds was constructed. The screening system involved adding an aqueous solution of each compound to bovine coagulated blood and then measuring the absorbance of heme collected in the supernatant.
Specifically, to bovine blood, an equal amount of 8% PFA solution was added, and reacted at 4° C. overnight. The mixed liquid was centrifuged at 1500×g for 5 minutes, and the supernatant containing PFA was discarded. Then, the same amount of PBS as the original volume of blood was added to prepare a coagulated blood sample. To 150 μL of 10 wt % aqueous solution of each compound, 50 μL of the coagulated blood sample was added, and reacted at 37° C. overnight. The reaction solution was centrifuged at 1500×g for 5 minutes, and then 100 μL of the supernatant was added to a plate so as to be subjected to absorbance measurement. A sample which is suspended in water instead of being dissolved in the water has a weak decoloring effect, but none the less has a high absorbance value. […]

Compound	pH (Table 4)	400 nm [1]	pH ([…])	700 nm calibrated 420 nm Average (bovine coagulated blood)	integrated value 500-700 nm Average (bovine coagulated blood)	Fluorescence quench Average (Serius; relative fluorescence)	also measured
CSCCC(NC(C)=O)C(=O)O (racemic) [#0360, N-Acetyl- DL-methionine]	2.75	–	–	–	–	–	–
Cl.NC1CCSC1=O (racemic) [#1213, DL-Homocysteinethiolactone hydrochloride]	2.31	–	–	–	–	–	–
O=C(O)CC(O)C(=O)O (racemic) [#1300, DL-Malic acid]	2.34	–	–	–	–	–	–
NCCCCCO [#0003]	–	0.052	12.5	1.83	1.21	0.63	–
NCCCCO [#0006]	–	0.06	12.3	1.22	0.82	0.64	–
NCCCCCCO [#0007, 6-Amino-1-hexanol]	–	0.093	11.9	2.66	1.76	0.22	–
O=C(O)CCCCCl [#0062, 5-Chlorovaleric acid]	2.86	–	–	–	–	–	–
C=CCC(=O)O [#0073, 3-Butenoic acid]	3.43	–	–	–	–	–	–
O=C(O)CCCCBr [#0074, 5-Bromovaleric acid]	2.39	–	–	–	–	–	–
O=C(O)CCO [#0155, 3-Hydroxypropionic acid]	3.66	–	–	–	–	–	–
Cl.O=C(O)CCP(CCC(=O)O)CCC(=O)O [#0197, Tris(2-carboxyethyl) phosphine hydrochloride]	–	–	–	4.28	3.89	–	Fluorescence quench Average (Serius): −0.05
CCOC(=O)[C@H]1CC[C@H](O)CC1 [#0216, Ethyl trans-4-hydroxy-cyclohexanecarboxylate]	5.68	–	–	–	–	–	–
NCCCNCCNCCCN [#0277, N,N′-Bis(3-aminopropyl) ethylenediamine]	–	0.053	13.1	1.20	0.83	0.71	–
CC(=O)N[C@@H](CS)C(=O)O [#0346, N-Acetyl- L-cysteine]	2.86	–	–	–	–	–	–
CSCC[C@H](NC(C)=O)C(=O)O [#0350, N-Acetyl- L-methionine]	2.74	–	–	–	–	–	–
CCCCCCCCCCCCCC[N+](C)(C)Cc1ccccc1 [#0362]	–	–	–	–	–	–	Fluorescence quench Average (Serius): 1.07
CN(CCCN)CCCN [#0380]	–	–	–	2.62	1.58	0.62	–
C[N+](C)(C)Cc1ccccc1.[OH-] [#0387, Benzyltrimethyl- ammonium Hydroxide]	–	0.054	13.8	3.14	2.56	0.00	OD400 [1]: 0.054; pH (Table 1): 13.8
NCCCOCCCN [#0394, Bis(3-aminopropyl) ether]	–	0.067	13.2	3.27	1.85	0.54	–
[Cl-].c1ccc(C[P+](c2ccccc2)(c2ccccc2)c2ccccc2)cc1 [#0425, Benzyltriphenyl-phosphonium chloride]	–	–	–	1.14	0.83	0.35	–
Cl.NOCc1ccccc1 [#0429, O-Benzylhydroxylamine hydrochloride]	4.10	–	–	–	–	–	–
CC(C)(C)CC(C)(C)c1ccc(OCCOCC[N+](C)(C)Cc2ccccc2)cc1 [#0441, Benzethonium Chloride]	–	–	–	3.40	2.80	–	Fluorescence quench Average (Serius): 1.08
NCC1CCOCC1 [#0467, 4-Aminomethyl-tetrahydropyran]	–	0.049	12.9	1.52	1.13	0.65	–
Cl.NC1(C(=O)O)CCC1 [#0473, 1-Aminocyclobutanecarboxylic acid hydrochloride]	2.18	–	–	–	–	–	–
C1CCC2=NCCCN2CC1 [#0594, 1,8-Diazabicyclo [5.4.0]-7-undecene]	–	–	–	3.13	1.94	–	Fluorescence quench Average (Serius): 0.54
CC(=O)O.CCCCCCCCCCCCN [#0627, Dodecylamine acetate]	–	0.053	10.3	2.21	1.74	1.05	OD400 [1]: 0.053; pH (Table 1): 10.3
C[n+]1ccc(-c2cc[n+](C)cc2)cc1 [#0652, 1,1′-Dimethyl-4,4′-bipyridinium dichloride]	–	–	–	2.01	2.01	–	Fluorescence quench Average (Serius): 0.42
CCC(N)CCN (centres unmarked) [#0678]	–	0.049	13.6	1.71	1.15	0.60	–

Reference: patent US20220381657A1, “METHOD FOR PREPARING BIOLOGICAL MATERIAL HAVING EXCELLENT LIGHT-TRANSMITTING PROPERTY” (RIKEN, priority 2016, published 2022)
